Molecules are shown by their SMILES.

Assay [1] concerns inherited obese mice (C57BL ob/ob). The assay can be described thus: Blood sugar-lowering effect in glucose tolerance test, inherited obese mice (C57BL ob/ob). Format: in vivo, mouse (C57BL ob/ob). As to conditions: 10 mg/kg oral, 5 days; glucose 2 g/kg orally after overnight fasting; blood sugar at 0, 30 and 60 minutes. How it is done:
Employing inherited obese mice (C57BL ob/ob), prior to test, the blood sugar level was determined by collecting blood from caudal vein. The mice were grouped so as not to cause any difference in the blood sugar level, and the compounds of Example 16, 17 and 29 were administered orally for 5 days at a dosage of 10 mg/kg. For the glucose tolerance test, 2 g/kg of glucose were administered orally after fasting overnight and the blood sugar levels at 0 minute, 30 minutes and 60 minutes were determined. The blood sugar-lowering rate was calculated from following formula. [formula]

For assay [2] the test system is unchanged. The assay can be described thus: Triglyceride-lowering effect in blood, inherited obese mice (C57BL ob/ob). Format: in vivo, mouse (C57BL ob/ob). Conditions: 2 weeks. On the procedure:
Employing inherited obese mice (C57BL ob/ob), the compound of Example 16 was administered orally for 2 weeks at following dosages, and thereafter the triglyceride level in blood was determined. The triglyceride-lowering rate in blood was calculated from following formula. [formula]

Another assay deals with T1, aldose reductase (Rattus norvegicus, UniProt P07943).
T1 construct: aldose reductase extracted from rat lens; from tissue; host or cells: rat lens
The assay can be described thus: In-vitro inhibitory effect against aldose reductase extracted from rat lens (method of Hayman and Kinoshita). Type of assay: biochemical. From the text: Against aldose reductase extracted from rat lens, the in-vitro inhibitory effect of the compound of Example 16 was investigated by the method of Hayman and Kinoshita (Journal of Biological Chemistry, vol. 240, p. 877 (1965)).

Regarding `COc1ccc(C2SC(=O)NC2=O)cc1C(=O)NCc1cccc(C(F)(F)F)c1` (stereo not drawn) [Example 17], the Blood sugar-depressing rate in assay [1] was found to be 42%.
With `COc1ccc(C2SC(=O)NC2=O)cc1C(=O)NCc1ccc(C(F)(F)F)cc1` (stereo not drawn) [Example 16, N-(4-trifluoromethylbenzyl)-5-(2,4-dioxothiazolidin-5-yl)-2-methoxybenzamid], the “In-blood triglyceride depressing rate” value in assay [2] (3 mg/kg oral) was 51%; in assay [2] (10 mg/kg oral), 70%. This molecule also had a Blood sugar-depressing rate in assay [1] of 48%. Besides, the IC50 (in general, the concentration needed to halve the response being measured) against aldose reductase was determined as 0.023 µM.
In assay [1], `O=C1NC(=O)C(c2ccc(F)c(C(=O)NCc3ccc(C(F)(F)F)cc3)c2)S1` (stereo not drawn) [Example 29] had a Blood sugar-depressing rate of 30%.

The record behind these values is US5948803A, “N-substituted dioxothiazolidylbenzamide derivatives and process for producing the same” (Kyorin Pharmaceutical Co., Ltd., priority 1995, dated 1999).
